Like-named read-outs stand apart in the source and are kept apart here.
Tests used:
Assay type in all cases: cell-based
TRPM8 = TRPM8 (Homo sapiens, UniProt Q7Z2W7); test: TRPM8 antagonist activity by Fura-2 Ca2+ imaging in HEK-293 cells stably expressing human TRPM8; details: for IC50: read-out: Functional Activity hTRPM8 potency IC50 ± SEM
human TRPA1 = human TRPA1 (Homo sapiens, UniProt O75762); test: TRPA1 agonist and antagonist Ca2+ flux assay (FLIPR, Fluo-8) in HEK293 cells stably expressing human TRPA1
human TRPV1 = human TRPV1 (Homo sapiens, UniProt Q8NER1); test: TRPV1 agonist and antagonist Ca2+ flux assay (FLIPR, Fluo-8) in HEK293 cells stably expressing human TRPV1
[1] = inhibition of icilin (500 nM)-evoked Ca2+ entry, HEK-293 cells stably expressing hTRPM8, mean ± SEM, three independent experiments
[2] = HEK293; read-out: hTRPA1 % Inhibition (n = 3)
[3] = tested at 100 nM; normalized to Emax of AITC (300 μM)
[4] = tested at 1 μM; normalized to Emax of AITC (300 μM)
[5] = HEK293; read-out: hTRPV1 % Inhibition (n = 3)
[6] = tested at 100 nM; normalized to Emax of capsaicin (3 μM)
[7] = tested at 1 μM; normalized to Emax of capsaicin (3 μM)
[8] = HEK293, read-out: hTRPA1 % Inhibition (n = 3)
[9] = HEK293, read-out: hTRPV1 % Inhibition (n = 3)
[10] = at concentrations 13- to 25-fold higher than hTRPM8 IC50

TRPM8, sequence (Q7Z2W7 whole entry): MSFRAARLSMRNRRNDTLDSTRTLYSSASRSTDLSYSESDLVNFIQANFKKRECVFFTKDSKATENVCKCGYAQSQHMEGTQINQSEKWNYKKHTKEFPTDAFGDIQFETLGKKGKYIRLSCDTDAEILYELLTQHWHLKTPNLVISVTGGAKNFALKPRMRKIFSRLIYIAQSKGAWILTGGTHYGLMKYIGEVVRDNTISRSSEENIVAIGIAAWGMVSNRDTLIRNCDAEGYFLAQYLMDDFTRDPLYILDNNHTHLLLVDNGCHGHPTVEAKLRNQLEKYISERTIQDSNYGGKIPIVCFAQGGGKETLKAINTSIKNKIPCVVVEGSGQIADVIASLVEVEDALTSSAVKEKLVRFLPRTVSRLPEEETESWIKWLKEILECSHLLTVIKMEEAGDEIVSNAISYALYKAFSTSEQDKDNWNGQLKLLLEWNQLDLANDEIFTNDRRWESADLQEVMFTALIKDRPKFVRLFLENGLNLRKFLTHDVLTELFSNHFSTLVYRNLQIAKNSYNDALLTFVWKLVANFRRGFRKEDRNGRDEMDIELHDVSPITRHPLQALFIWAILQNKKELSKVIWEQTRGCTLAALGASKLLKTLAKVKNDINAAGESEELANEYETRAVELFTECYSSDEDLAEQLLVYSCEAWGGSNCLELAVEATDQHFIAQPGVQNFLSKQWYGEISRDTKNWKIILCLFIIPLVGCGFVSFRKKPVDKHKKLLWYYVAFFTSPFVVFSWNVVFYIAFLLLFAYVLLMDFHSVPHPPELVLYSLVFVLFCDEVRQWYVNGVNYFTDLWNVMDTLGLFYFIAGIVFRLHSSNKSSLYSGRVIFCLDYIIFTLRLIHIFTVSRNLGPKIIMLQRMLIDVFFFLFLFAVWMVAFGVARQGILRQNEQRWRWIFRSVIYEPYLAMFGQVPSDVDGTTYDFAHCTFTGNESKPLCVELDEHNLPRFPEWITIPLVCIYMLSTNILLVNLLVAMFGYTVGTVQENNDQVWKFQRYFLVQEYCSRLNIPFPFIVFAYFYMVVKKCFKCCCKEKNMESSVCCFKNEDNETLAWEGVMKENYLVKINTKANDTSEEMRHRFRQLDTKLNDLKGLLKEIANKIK
human TRPV1, sequence (Q8NER1 whole entry): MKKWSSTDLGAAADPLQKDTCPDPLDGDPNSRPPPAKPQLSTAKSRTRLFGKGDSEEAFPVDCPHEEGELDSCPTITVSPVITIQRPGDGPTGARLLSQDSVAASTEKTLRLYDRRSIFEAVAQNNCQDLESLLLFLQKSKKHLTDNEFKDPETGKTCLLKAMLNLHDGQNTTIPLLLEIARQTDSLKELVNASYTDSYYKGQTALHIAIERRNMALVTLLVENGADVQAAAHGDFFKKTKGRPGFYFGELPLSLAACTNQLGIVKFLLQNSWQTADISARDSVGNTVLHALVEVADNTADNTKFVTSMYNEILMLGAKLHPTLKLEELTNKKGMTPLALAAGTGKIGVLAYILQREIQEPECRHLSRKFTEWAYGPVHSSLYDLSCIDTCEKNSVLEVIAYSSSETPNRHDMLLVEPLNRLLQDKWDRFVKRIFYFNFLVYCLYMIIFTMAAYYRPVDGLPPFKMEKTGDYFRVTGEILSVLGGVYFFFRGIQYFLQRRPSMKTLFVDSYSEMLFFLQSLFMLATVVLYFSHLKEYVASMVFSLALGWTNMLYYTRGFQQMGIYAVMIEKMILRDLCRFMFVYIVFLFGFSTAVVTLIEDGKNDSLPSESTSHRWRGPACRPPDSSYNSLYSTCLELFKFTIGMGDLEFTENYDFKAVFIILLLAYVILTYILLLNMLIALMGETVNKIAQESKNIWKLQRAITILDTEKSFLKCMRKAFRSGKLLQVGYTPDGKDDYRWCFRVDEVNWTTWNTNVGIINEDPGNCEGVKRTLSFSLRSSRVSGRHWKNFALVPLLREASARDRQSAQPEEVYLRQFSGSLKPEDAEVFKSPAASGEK
human TRPA1, sequence (O75762 whole entry): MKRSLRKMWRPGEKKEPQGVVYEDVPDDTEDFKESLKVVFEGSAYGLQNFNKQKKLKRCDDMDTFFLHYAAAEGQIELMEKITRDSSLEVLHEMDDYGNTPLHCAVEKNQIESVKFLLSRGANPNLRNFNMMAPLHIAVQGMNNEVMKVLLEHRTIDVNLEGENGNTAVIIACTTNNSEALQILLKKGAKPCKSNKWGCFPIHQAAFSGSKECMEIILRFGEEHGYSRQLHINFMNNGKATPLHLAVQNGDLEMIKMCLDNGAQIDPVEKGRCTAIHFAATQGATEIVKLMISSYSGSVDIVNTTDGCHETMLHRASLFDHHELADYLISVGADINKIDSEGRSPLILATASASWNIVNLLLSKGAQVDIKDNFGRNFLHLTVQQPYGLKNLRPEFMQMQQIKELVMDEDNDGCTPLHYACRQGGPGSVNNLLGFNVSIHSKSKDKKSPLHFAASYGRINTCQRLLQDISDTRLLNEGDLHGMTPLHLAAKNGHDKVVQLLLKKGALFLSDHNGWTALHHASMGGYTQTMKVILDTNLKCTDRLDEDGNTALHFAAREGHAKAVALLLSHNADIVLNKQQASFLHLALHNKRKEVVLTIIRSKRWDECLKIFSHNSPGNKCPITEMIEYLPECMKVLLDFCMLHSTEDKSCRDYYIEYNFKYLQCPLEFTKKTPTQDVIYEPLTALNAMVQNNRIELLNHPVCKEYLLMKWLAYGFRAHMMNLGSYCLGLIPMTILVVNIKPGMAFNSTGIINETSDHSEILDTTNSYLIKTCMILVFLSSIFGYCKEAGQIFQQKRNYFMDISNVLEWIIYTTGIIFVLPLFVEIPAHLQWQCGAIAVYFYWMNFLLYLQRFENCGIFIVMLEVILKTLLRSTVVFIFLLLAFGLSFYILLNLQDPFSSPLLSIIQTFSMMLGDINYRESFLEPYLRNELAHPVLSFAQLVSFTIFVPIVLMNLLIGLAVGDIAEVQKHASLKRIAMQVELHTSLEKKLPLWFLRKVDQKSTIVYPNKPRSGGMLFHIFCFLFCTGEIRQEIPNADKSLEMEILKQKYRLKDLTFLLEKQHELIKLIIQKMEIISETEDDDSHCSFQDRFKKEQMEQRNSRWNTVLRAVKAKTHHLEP

IC50 (TRPM8; [1]) [nM] | inhibition at 0.1 µM (human TRPA1; [2]) [%] | inhibition at 1 µM (human TRPA1; [2]) [%] | hTRPA1 % Activation (n = 3-5) (human TRPA1; [3]) [%] | hTRPA1 % Activation (n = 3-5) (human TRPA1; [4]) [%] | inhibition at 0.1 µM (human TRPV1; [5]) [%] | inhibition at 1 µM (human TRPV1; [5]) [%] | hTRPV1 % Activation (n = 3) (human TRPV1; [6]) [%] | hTRPV1 % Activation (n = 3) (human TRPV1; [7]) [%] | Structure (SMILES) | IC50 (TRPM8) [nM] | also measured
49000 ± 1000 |  |  |  |  |  |  |  |  | O=C(NC1CCCCC1)c1ccc(-c2ccccc2)cc1 [Compound 3, N-cyclohexyl-[1,1′-biphenyl]-4-carboxamide] |  | 
52 ± 1 | -2 ± 5 | 4 ± 5 | 0.1 ± 0.7 | 0.8 ± 0.5 | -3 ± 4 | 24 ± 1 | 0.0 ± 1.0 | 0.6 ± 1.5 | O=C(NC1CCCCCC1)c1ccc(-c2ccccc2)cc1 [Compound 5, N-cycloheptyl-[1,1′-biphenyl]-4-carboxamide] |  | 
692 ± 1 |  |  |  |  |  |  |  |  | O=C(NC1CC2CCC(C2)C1)c1ccc(-c2ccccc2)cc1 (stereo not drawn) [Compound 6, N-(bicyclo[3.2.1]octan-3-yl)-[1,1′-biphenyl]-4-carboxamide] |  | 
62 ± 1 | -13 ± 4 | 0.2 ± 6 | −1.0 ± 0.1 | −1.5 ± 0.9 | -4 ± 4 | 14 ± 4 | −1.9 ± 0.7 | −3.2 ± 0.6 | O=C(NC1CCCCCCC1)c1ccc(-c2ccccc2)cc1 [Compound 7, N-cyclooctyl-[1,1′-biphenyl]-4-carboxamide] |  | 
40 ± 1 | -1 ± 5 | -7 ± 9 | 0.2 ± 0.5 | −0.2 ± 1.1 | -3 ± 4 | 5 ± 2 | −1.0 ± 0.4 | 0.7 ± 0.2 | O=C(NC1CCC2(CCCCC2)CC1)c1ccc(-c2ccccc2)cc1 [Compound 13, N-(spiro[5.5]undecan-3-yl)-[1,1′-biphenyl]-4-carboxamide] |  | effect on hTRPA1-mediated responses (intrinsic and antagonist activity) (human TRPA1; [10]): do not affect; effect on hTRPV1-mediated responses (intrinsic and antagonist activity) (human TRPV1; [10]): do not affect

Continued, molecule first:

Structure (SMILES) | IC50 (TRPM8; [1]) [nM] | inhibition at 0.1 µM (human TRPA1; [2]) [%] | inhibition at 1 µM (human TRPA1; [2]) [%] | hTRPA1 % Activation (n = 3-5) (human TRPA1; [3]) [%] | hTRPA1 % Activation (n = 3-5) (human TRPA1; [4]) [%] | inhibition at 0.1 µM (human TRPV1; [5]) [%] | inhibition at 1 µM (human TRPV1; [5]) [%] | hTRPV1 % Activation (n = 3) (human TRPV1; [6]) [%] | hTRPV1 % Activation (n = 3) (human TRPV1; [7]) [%] | IC50 (TRPM8) [nM] | also measured
CC(C)[C@@H]1CC[C@@H](C)C[C@H]1NC(=O)c1ccc(-c2ccccc2)cc1 [Compound 1, reference compound] |  |  |  |  |  |  |  |  |  | 16000 ± 1000 | 
O=C(NC1CCCc2ccccc21)c1ccc(-c2ccccc2)cc1 (stereo not drawn) [Compound 9, N-(1,2,3,4-tetrahydronaphthalen-1-yl)-[1,1′-biphenyl]-4-carboxamide] |  |  |  |  |  |  |  |  |  | 55000 ± 1000 | loss of potency vs. Compound 8 (TRPM8; icilin Ca2+ assay): 3 fold
O=C(NC1CCc2ccccc2C1)c1ccc(-c2ccccc2)cc1 (stereo not drawn) [Compound 11, N-(1,2,3,4-tetrahydronaphthalen-2-yl)-[1,1′-biphenyl]-4-carboxamide] |  |  |  | −0.1 ± 0.5 | −0.8 ± 0.6 |  |  | −1.8 ± 0.9 | −0.7 ± 1.5 | 52 ± 1 | decrease of hTRPM8 potency (vs. Compound 10) (TRPM8; icilin Ca2+ assay): 9 fold; inhibition at 0.1 µM (human TRPA1; [8]): 3 ± 6%; inhibition at 1 µM (human TRPA1; [8]): 4 ± 1%; inhibition at 0.1 µM (human TRPV1; [9]): -3.1 ± 0.6%; inhibition at 1 µM (human TRPV1; [9]): 13 ± 3%
O=C(NC12CC3CC(CC(C3)C1)C2)c1ccc(-c2ccccc2)cc1 [Compound 15, N-(adamantan-1-yl)-[1,1′-biphenyl]-4-carboxamide] | 16 ± 1 |  |  |  |  |  |  |  |  |  | inhibition at 0.3 µM (human TRPA1; [2]): -7 ± 7%; effect on hTRPA1-mediated responses (intrinsic and antagonist activity) (human TRPA1; [10]): do not affect; hTRPA1 % Activation (n = 3-5) (human TRPA1; tested at 30 nM; normalized to Emax of AITC (300 μM)): −2.6 ± 0.5%; hTRPA1 % Activation (n = 3-5) (human TRPA1; tested at 300 nM; normalized to Emax of AITC (300 μM)): −1.5 ± 0.4%; inhibition at 0.03 µM (human TRPV1; [5]): -6 ± 5%; inhibition at 0.3 µM (human TRPV1; [5]): 3 ± 4%; effect on hTRPV1-mediated responses (intrinsic and antagonist activity) (human TRPV1; [10]): do not affect; hTRPV1 % Activation (n = 3) (human TRPV1; tested at 30 nM; normalized to Emax of capsaicin (3 μM)): 1.0 ± 0.2%; hTRPV1 % Activation (n = 3) (human TRPV1; tested at 300 nM; normalized to Emax of capsaicin (3 μM)): 1 ± 2%

— patent publication US20220313629A1, “TRANSIENT POTENTIAL MELASTATIN 8 (TRPM8) ANTAGONISTS AND RELATED METHODS” (MARSHALL UNIVERSITY RESEARCH CORPORATION, priority 2019, published 2022)
